This is an account of results in patent publication US10227357B2, “Compounds and methods for kinase modulation, and indications therefor” (Plexxikon Inc., priority 2012, dated 2019).

T1 sequence (P10721 with tags, fused parts or gaps DEL694-753/D816V): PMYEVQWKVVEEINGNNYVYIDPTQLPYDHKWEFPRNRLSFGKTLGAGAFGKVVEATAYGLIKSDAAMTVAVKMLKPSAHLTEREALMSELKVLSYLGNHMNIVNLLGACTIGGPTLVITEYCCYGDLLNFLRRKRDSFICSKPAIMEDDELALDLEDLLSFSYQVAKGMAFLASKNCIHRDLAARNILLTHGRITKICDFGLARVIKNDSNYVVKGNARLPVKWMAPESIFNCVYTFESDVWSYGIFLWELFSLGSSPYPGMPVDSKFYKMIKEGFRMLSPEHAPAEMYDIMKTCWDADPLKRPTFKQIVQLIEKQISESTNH

This test addresses T1, c-kit mutant D816V (Homo sapiens, UniProt P10721, D816V/DEL694-753).
T1 construct: residues 551-934, kinase insertion domain residues 694-753 deleted; 6x-histidine (N); made in house; host or cells: E. coli Arctic Express (DE3) RIL (Stratagene)
The test is described as follows: c-Kit mutant D816V biochemical assay, AlphaScreen. Particulars: c-kit D816V biochemical inhibitory activity; read-out: Biochemical activity (IC50 μM) Kit D816V. In a few lines:
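Eight-point, threefold compound series incubated 30 min at room temperature with E. coli-produced D816V kinase, 10 μM ATP, Mg2+/Mn2+ HEPES buffer pH 7.2 and 5% DMSO. After EDTA stop, streptavidin and anti-phosphotyrosine (PY20) AlphaScreen beads gave the read-out, and IC50 was fitted from the concentration–signal curve.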
For orientation: Bead proximity is the source of the signal in Alpha formats.
The term IC50 denotes the concentration that gives 50% inhibition. In the case of `Cn1cc(-c2cc3c(N4CCC(NS(=O)(=O)c5ccc(F)cc5)CC4)ncnc3[nH]2)cn1` [P-0490, 4-fluoro-N-[1-[6-(1-methylpyrazol-4-yl)-7H-pyrrolo[2,3-d]pyrimidin-4-yl]-4-piperidyl]benzenesulfonamide], the IC50 lay within 1 to 10 µM. On to `Cn1cc(-c2cc3c(N4CCC(NS(=O)(=O)c5ccccc5OC(F)(F)F)CC4)ncnc3[nH]2)cn1` [P-0493, N-[1-[6-(1-methylpyrazol-4-yl)-7H-pyrrolo[2,3-d]pyrimidin-4-yl]-4-piperidyl]-2-(trifluoromethoxy)benzenesulfonamide], for which the IC50 was 10 to 200 µM. Regarding `COc1ccc(S(=O)(=O)NC2CCN(c3ncnc4[nH]c(-c5cnn(C)c5)cc34)CC2)cc1` [P-0496, 4-methoxy-N-[1-[6-(1-methylpyrazol-4-yl)-7H-pyrrolo[2,3-d]pyrimidin-4-yl]-4-piperidyl]benzenesulfonamide], the half-maximal inhibitory concentration (IC50) lay within 0.0001 to 1 µM.

For the molecule `Cn1cc(-c2cc3c(N4CCC(NS(=O)(=O)c5ccc(OC(F)(F)F)cc5)CC4)ncnc3[nH]2)cn1` [P-0497, N-[1-[6-(1-methylpyrazol-4-yl)-7H-pyrrolo[2,3-d]pyrimidin-4-yl]-4-piperidyl]-4-(trifluoromethoxy)benzenesulfonamide], the IC50 was 1 to 10 µM.

In the case of `O=S(=O)(NC1CCN(c2ncnc3[nH]c(-c4ccc(Cl)cc4)cc23)CC1)c1cccc(OC(F)(F)F)c1` [P-0499, N-[1-[6-(4-chlorophenyl)-7H-pyrrolo[2,3-d]pyrimidin-4-yl]-4-piperidyl]-3-(trifluoromethoxy)benzenesulfonamide], the half-inhibitory concentration (IC50) was 1 to 10 µM. The result for `Cn1cc(-c2cc3c(N4CCC(NS(=O)(=O)c5cccc(OC(F)(F)F)c5)CC4)ncnc3[nH]2)cn1` [P-0500, N-[1-[6-(1-methylpyrazol-4-yl)-7H-pyrrolo[2,3-d]pyrimidin-4-yl]-4-piperidyl]-3-(trifluoromethoxy)benzenesulfonamide] reads 10 to 200 µM; that for `O=C(NCc1ccc(F)cc1)NC1CCN(c2ncnc3[nH]ccc23)CC1` [P-0509, 1-[(4-fluorophenyl)methyl]-3-[1-(7H-pyrrolo[2,3-d]pyrimidin-4-yl)-4-piperidyl]urea], 10 to 200 µM; that for `O=C(NCCc1ccc(F)cc1)NC1CCN(c2ncnc3[nH]ccc23)CC1` [P-0511, 1-[2-(4-fluorophenyl)ethyl]-3-[1-(7H-pyrrolo[2,3-d]pyrimidin-4-yl)-4-piperidyl]urea], 10 to 200 µM. The result for `O=C(Nc1ccc(F)c(Cl)c1)NC1CCN(c2ncnc3[nH]ccc23)CC1` [P-0512, 1-(3-chloro-4-fluoro-phenyl)-3-[1-(7H-pyrrolo[2,3-d]pyrimidin-4-yl)-4-piperidyl]urea] reads 10 to 200 µM; that for `O=C(Nc1ccc(OC(F)(F)F)cc1)NC1CCN(c2ncnc3[nH]ccc23)CC1` [P-0513, 1-[1-(7H-pyrrolo[2,3-d]pyrimidin-4-yl)-4-piperidyl]-3-[4-(trifluoromethoxy)phenyl]urea], 10 to 200 µM. Take `O=C(Nc1ccc(C(F)(F)F)cc1)NC1CCN(c2ncnc3[nH]ccc23)CC1` [P-0514, 1-[1-(7H-pyrrolo[2,3-d]pyrimidin-4-yl)-4-piperidyl]-3-[4-(trifluoromethyl)phenyl]urea]: the IC50 lay in the range of 10 to 200 µM. For `O=C(Nc1ccc(F)cc1)N1CC2CCC1CN2c1ncnc2cc(-c3ccc(F)cc3)sc12` (stereo not shown) [P-0546, N-(4-fluorophenyl)-5-[6-(4-fluorophenyl)thieno[3,2-d]pyrimidin-4-yl]-2,5-diazabicyclo[2.2.2]octane-2-carboxamide], the IC50 fell in the range of 1 to 10 µM.

On to `COc1cccc(CNC(=O)N2CC3CCC2CN3c2ncnc3cc(-c4ccc(F)cc4)sc23)c1` (stereo not shown) [P-0547, 5-[6-(4-fluorophenyl)thieno[3,2-d]pyrimidin-4-yl]-N-[(3-methoxyphenyl)methyl]-2,5-diazabicyclo[2.2.2]octane-2-carboxamide], for which the IC50 fell in the range of 0.0001 to 1 µM. `COc1cccc([C@H](C)NC(=O)N2CC3CCC(C2)N3c2ncnc3cc(-c4ccc(F)cc4)sc23)c1` [P-0550, 8-[6-(4-fluorophenyl)thieno[3,2-d]pyrimidin-4-yl]-N-[(1S)-1-(3-methoxyphenyl)ethyl]-3,8-diazabicyclo[3.2.1]octane-3-carboxamide]: the half-inhibitory concentration (IC50) fell in the range of 1 to 10 µM. Then `COc1cccc(CNC(=O)N2CC3CCC(C2)N3c2ncnc3cc(-c4ccc(F)cc4)sc23)c1` [P-0551, 8-[6-(4-fluorophenyl)thieno[3,2-d]pyrimidin-4-yl]-N-[(3-methoxyphenyl)methyl]-3,8-diazabicyclo[3.2.1]octane-3-carboxamide], with 1 to 10 µM; and `C[C@H](NC(=O)N1CCN(c2ncnc3cc(-c4ccc(F)cc4)sc23)CC1(C)C)c1cccc(F)c1` [P-0578, N-[(1S)-1-(3-fluorophenyl)ethyl]-4-[6-(4-fluorophenyl)thieno[3,2-d]pyrimidin-4-yl]-2,2-dimethyl-piperazine-1-carboxamide], with 1 to 10 µM; and `C[C@H](NC(=O)N1CCN(c2ncnc3cc(Br)sc23)CC1)c1ccc(F)cc1` [P-0597, 4-(6-bromothieno[3,2-d]pyrimidin-4-yl)-N-[(1S)-1-(4-fluorophenyl)ethyl]piperazine-1-carboxamide], with 1 to 10 µM. Then `C[C@H](NC(=O)N1CCN(c2ncnc3cc(-c4ccc(F)cc4)sc23)C[C@H]1C)c1ccc(F)cc1` [P-0601, (2R)-N-[(1S)-1-(4-fluorophenyl)ethyl]-4-[6-(4-fluorophenyl)thieno[3,2-d]pyrimidin-4-yl]-2-methyl-piperazine-1-carboxamide], with 1 to 10 µM; and `O=C(NCc1ccccc1)N1CCN(c2ncnc3cc(Br)sc23)CC1` [P-0629, N-benzyl-4-(6-bromothieno[3,2-d]pyrimidin-4-yl)piperazine-1-carboxamide], with 10 to 200 µM. The result for `CCS(=O)(=O)Nc1ccc(-c2ncnc3cc(-c4ccc(F)cc4)sc23)cc1` [P-0630, N-[4-[6-(4-fluorophenyl)thieno[3,2-d]pyrimidin-4-yl]phenyl]ethanesulfonamide] reads 1 to 10 µM; that for `CC(=O)Nc1ccc(-c2ncnc3cc(-c4ccc(F)cc4)sc23)cc1` [P-0632, N-[4-[6-(4-fluorophenyl)thieno[3,2-d]pyrimidin-4-yl]phenyl]acetamide], 10 to 200 µM.

In the case of `Nc1ccc(-c2ncnc3cc(-c4ccc(F)cc4)sc23)cc1` [P-0634, 4-[6-(4-fluorophenyl)thieno[3,2-d]pyrimidin-4-yl]aniline], the IC50 is 1 to 10 µM. Take `O=S(=O)(NCc1ccccc1)c1ccc(-c2ncnc3cc(-c4ccc(F)cc4)sc23)cc1` [P-0635, N-benzyl-4-[6-(4-fluorophenyl)thieno[3,2-d]pyrimidin-4-yl]benzenesulfonamide]: the IC50 was in the range of 0.0001 to 1 µM. The result for `Cc1ccc(S(=O)(=O)Nc2ccc(-c3ncnc4cc(-c5ccc(F)cc5)sc34)cc2)cc1` [P-0636, N-[4-[6-(4-fluorophenyl)thieno[3,2-d]pyrimidin-4-yl]phenyl]-4-methyl-benzenesulfonamide] reads 0.0001 to 1 µM; that for `O=C(Nc1ccc(F)cc1)N1CCN(c2ncnc3ccsc23)CC1` [P-0640, N-(4-fluorophenyl)-4-thieno[3,2-d]pyrimidin-4-yl-piperazine-1-carboxamide], 0.0001 to 1 µM. The result for `CCCc1ccc(S(=O)(=O)NC2CC=C(c3ncnc4[nH]c(C)cc34)CC2)cc1` (stereo not shown) [P-0651, N-[4-(6-methyl-7H-pyrrolo[2,3-d]pyrimidin-4-yl)cyclohex-3-en-1-yl]-4-propyl-benzenesulfonamide] reads 0.0001 to 1 µM. Consider `Cc1cc2c(C3=CCC(NS(=O)(=O)c4ccc(OC(C)C)cc4)CC3)ncnc2[nH]1` (stereo not shown) [P-0652, 4-isopropoxy-N-[4-(6-methyl-7H-pyrrolo[2,3-d]pyrimidin-4-yl)cyclohex-3-en-1-yl]benzenesulfonamide], for which the concentration for half-maximal inhibition (IC50) is 1 to 10 µM. Then `Cc1cc2c(C3=CCC(NS(=O)(=O)c4ccc(OC(F)F)cc4)CC3)ncnc2[nH]1` (stereo not shown) [P-0653, 4-(difluoromethoxy)-N-[4-(6-methyl-7H-pyrrolo[2,3-d]pyrimidin-4-yl)cyclohex-3-en-1-yl]benzenesulfonamide], with 1 to 10 µM; and `Cc1cc2c(N3CCC(NS(=O)(=O)c4ccc(OC(F)F)cc4)CC3)ncnc2[nH]1` [P-0656, 4-(difluoromethoxy)-N-[1-(6-methyl-7H-pyrrolo[2,3-d]pyrimidin-4-yl)-4-piperidyl]benzenesulfonamide], with 10 to 200 µM; and `Cc1cc2c(N3CCC(NS(=O)(=O)c4ccc(C(C)C)cc4)CC3)ncnc2[nH]1` [P-0657, 4-isopropyl-N-[1-(6-methyl-7H-pyrrolo[2,3-d]pyrimidin-4-yl)-4-piperidyl]benzenesulfonamide], with 10 to 200 µM. The result for `CCCc1ccc(S(=O)(=O)NC2CCN(c3ncnc4[nH]c(C)cc34)CC2)cc1` [P-0658, N-[1-(6-methyl-7H-pyrrolo[2,3-d]pyrimidin-4-yl)-4-piperidyl]-4-propyl-benzenesulfonamide] reads 1 to 10 µM. For `Cc1ccc(S(=O)(=O)NC2CCN(c3ncnc4[nH]c(-c5cn(C)nc5C)cc34)CC2)cc1` [P-0659, N-[1-[6-(1,3-dimethylpyrazol-4-yl)-7H-pyrrolo[2,3-d]pyrimidin-4-yl]-4-piperidyl]-4-methyl-benzenesulfonamide], the IC50 fell in the range of 0.0001 to 1 µM. Then `COc1cc(-c2cc3c(N4CCC(NS(=O)(=O)c5ccc(C)cc5)CC4)ncnc3[nH]2)ccn1` [P-0660, N-[1-[6-(2-methoxy-4-pyridyl)-7H-pyrrolo[2,3-d]pyrimidin-4-yl]-4-piperidyl]-4-methyl-benzenesulfonamide], with 0.0001 to 1 µM; and `Cc1csc(-c2cc3c(N4CCC(NS(=O)(=O)c5ccc(OC(F)(F)F)cc5)CC4)ncnc3[nH]2)c1` [P-0661, N-[1-[6-(4-methyl-2-thienyl)-7H-pyrrolo[2,3-d]pyrimidin-4-yl]-4-piperidyl]-4-(trifluoromethoxy)benzenesulfonamide], with 10 to 200 µM.
